Data: patent publication US7906488B2, “Sphingolipids in treatment and prevention of steatosis and of steatosis or of hepatotoxicity and its sequelae” (Nederlandse Organisatie Voor …, priority 2004, dated 2011)

System: APOE*3Leiden mice
Experiment: Liver lipid levels, liver appearance and liver histology
Format: in vivo
Conditions: 1% PS diet; for Fat deposits / lipid-filled vacuoles in liver cells (HPS-stained sections): compared to controls

## CCCCCCCCCCCCCC[C@@H](O)[C@@H](O)[C@@H](N)CO [PS, phytosphingosine]
5 weeks
  Liver cholesteryl ester, % Δ vs control: −61%
  Liver free cholesterol, % Δ vs control: −11%
  Liver triglycerides, % Δ vs control: −56%
5 weeks, 4 h-fasted
  Liver cholesteryl ester: 5.20 ± 0.79 μg/mg protein
  Liver free cholesterol: 6.95 ± 0.78 μg/mg protein
  Liver triglycerides: 15.28 ± 3.84 μg/mg protein
  Fat deposits / lipid-filled vacuoles in liver cells (HPS-stained sections): less lipid-filled vacuoles
Listed as phytosphingosine
  Fat deposits / lipid-filled vacuoles in liver cells (HPS-stained sections): absence of such fat deposits
Control livers enlarged and yellowish
  Liver appearance at autopsy: of normal size, and had a dark-red appearance
p<0.05
  Decrease of liver Free C vs control: 11%
  Decrease of liver cholesteryl esters vs control: 61%
